Reference: PubChem BioAssay AID330 (DTP/NCI, 2004)
“And” between values parts separate entries of the source, which are not always exact repeats. Identical values can stand only once. Inconclusive results and toxic doses are left out. Square brackets hold non-standard residues; d marks the D form. Peptide text beside a SMILES is read from it. * marks the point of attachment. ξ: configuration not given here. Cbz = O=C(OCc1ccccc1)*; ξNva = CCCC(N)C(=O)O

Tested on: P388 leukemia ip, CD2F1 mice, survival T/C
Assay: NCI In Vivo Anticancer Drug Screen. Data for tumor model P388 Leukemia (intraperitoneal) in CD2F1 (CDF1) mice
Conditions: endpoint: median survival time, higher = longer survival
Method in brief: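 Mice carrying the transplanted tumor received test compound or vehicle. Survival was recorded in each group, and the value is the treated-group measurement divided by that of the vehicle-treated control group.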

[1] = dose: 100.0 mg/kg/injection, schedule: Q04DX003 (ip), vehicle: saline with Tween-80
[2] = dose: 400.0 mg/kg/injection, schedule: Q04DX003 (ip), vehicle: saline with Tween-80
[3] = dose: 60.0 mg/kg/injection, schedule: Q01DX005 (ip), vehicle: Klucel (hydroxypropylcellulose) (HPC)
[4] = dose: 50.0 mg/kg/injection, schedule: Q01DX005 (ip), vehicle: Klucel (hydroxypropylcellulose) (HPC)
[5] = dose: 100.0 mg/kg/injection, schedule: Q01DX005 (ip), vehicle: Klucel (hydroxypropylcellulose) (HPC)
[6] = dose: 200.0 mg/kg/injection, schedule: Q01DX005 (ip), vehicle: Klucel (hydroxypropylcellulose) (HPC)

SMILES: Cn1c(=O)c2[nH]c(/N=N/N(CCCl)CCCl)nc2n(C)c1=O
- T/C (dose: 25.0 mg/kg/injection, schedule: Q01DX009 (ip), vehicle: saline): 100 % of control
- T/C (dose: 50.0 mg/kg/injection, schedule: Q01DX009 (ip), vehicle: saline): 100 % of control
- T/C (dose: 100.0 mg/kg/injection, schedule: Q01DX009 (ip), vehicle: saline): 104 % of control
- T/C (dose: 200.0 mg/kg/injection, schedule: Q01DX009 (ip), vehicle: saline): 107 % of control
- T/C (dose: 400.0 mg/kg/injection, schedule: Q01DX009 (ip), vehicle: saline): 96 % of control

SMILES: Cc1nc(N)nc(N)c1N1CCN(c2ccc(C(=O)NC(CCC(=O)O)C(=O)O)cc2)CC1 (configuration not stated)
- T/C (dose: 1.56 mg/kg/injection, schedule: Q01DX005 (ip), vehicle: water): 111 % of control
- T/C (dose: 12.5 mg/kg/injection, schedule: Q01DX005 (ip), vehicle: distilled water + Tween-80): 168 % of control
- T/C (dose: 12.5 mg/kg/injection, schedule: Q01DX005 (ip), vehicle: water): 150 % of control
- T/C (dose: 25.0 mg/kg/injection, schedule: Q01DX005 (ip), vehicle: distilled water + Tween-80): 176 % of control
- T/C (dose: 25.0 mg/kg/injection, schedule: Q01DX005 (ip), vehicle: water): 176 % of control
- T/C (dose: 50.0 mg/kg/injection, schedule: Q01DX005 (ip), vehicle: water): 222 % of control
- T/C (dose: 100.0 mg/kg/injection, schedule: Q01DX005 (ip), vehicle: distilled water + Tween-80): 87 % of control

SMILES: N#CC(C#N)=NNc1ccc([N+](=O)[O-])cc1Cl
- T/C (dose: 6.25 mg/kg/injection, schedule: Q01DX009 (ip), vehicle: Klucel (hydroxypropylcellulose) (HPC)): 103 % of control
- T/C (dose: 12.5 mg/kg/injection, schedule: Q01DX009 (ip), vehicle: Klucel (hydroxypropylcellulose) (HPC)): 103 % of control

SMILES: CCOC(=O)CCN(Cc1ccccc1)CC(C)C(=O)OC (configuration not stated)
- T/C [1]: 100 % of control
- T/C (dose: 200.0 mg/kg/injection, schedule: Q04DX003 (ip), vehicle: saline with Tween-80): 100 % of control
- T/C [2]: 100 % of control

SMILES: O=C1CCC2=C1C(c1ccc(Cl)c(Cl)c1)C1=C(CCC1=O)O2
- T/C (dose: 100.0 mg/kg/injection, schedule: Q01DX001 (ip), vehicle: Klucel (hydroxypropylcellulose) (HPC)): 98 % of control
- T/C (dose: 200.0 mg/kg/injection, schedule: Q01DX001 (ip), vehicle: Klucel (hydroxypropylcellulose) (HPC)): 100 % of control
- T/C (dose: 400.0 mg/kg/injection, schedule: Q01DX001 (ip), vehicle: Klucel (hydroxypropylcellulose) (HPC)): 102 % of control

SMILES: Cc1ccc(S(=O)CC(O)COCc2ccccc2)cc1 (configuration not stated)
- T/C (dose: 50.0 mg/kg/injection, schedule: Q01DX009 (ip), vehicle: saline with Tween-80): 89 % of control
- T/C (dose: 100.0 mg/kg/injection, schedule: Q01DX009 (ip), vehicle: saline with Tween-80): 94 % of control
- T/C (dose: 200.0 mg/kg/injection, schedule: Q01DX009 (ip), vehicle: saline with Tween-80): 91 % of control

SMILES: CNc1ncnc2c1ncn2C1CCCCO1 (configuration not stated)
- T/C (dose: 50.0 mg/kg/injection, schedule: Q01DX005 (ip), vehicle: saline): 102 % of control
- T/C (dose: 100.0 mg/kg/injection, schedule: Q01DX005 (ip), vehicle: saline): 100 % of control
- T/C (dose: 200.0 mg/kg/injection, schedule: Q01DX005 (ip), vehicle: saline): 91 % of control

SMILES: CCCCN=C1Nc2nc(=NCCCC)nc3c(Br)cc(Br)c(n23)N1
- T/C (dose: 0.18 mg/kg/injection, schedule: Q01DX005 (ip), vehicle: Klucel (hydroxypropylcellulose) (HPC)): 101 % of control
- T/C (dose: 0.37 mg/kg/injection, schedule: Q01DX005 (ip), vehicle: Klucel (hydroxypropylcellulose) (HPC)): 97 % of control
- T/C (dose: 0.75 mg/kg/injection, schedule: Q01DX005 (ip), vehicle: Klucel (hydroxypropylcellulose) (HPC)): 94 % of control
- T/C (dose: 30.0 mg/kg/injection, schedule: Q01DX005 (ip), vehicle: Klucel (hydroxypropylcellulose) (HPC)): 86 % of control
- T/C [3]: 87 % of control and 89 % of control

SMILES: COC(=O)C1=C(C)NC(=O)NC1c1ccc(N(CCCl)CCCl)c(OC)c1 (configuration not stated)
- T/C (dose: 1.56 mg/kg/injection, schedule: Q01DX009 (ip), vehicle: saline with Tween-80): 160 % of control
- T/C (dose: 3.13 mg/kg/injection, schedule: Q01DX009 (ip), vehicle: saline with Tween-80): 186 % of control
- T/C (dose: 6.25 mg/kg/injection, schedule: Q01DX009 (ip), vehicle: saline with Tween-80): 117 % of control
- T/C (dose: 12.5 mg/kg/injection, schedule: Q01DX009 (ip), vehicle: saline with Tween-80): 96 % of control

SMILES: O=C(O)c1ccc(C(Cl)(Cl)Cl)cc1
- T/C (dose: 100.0 mg/kg/injection, schedule: Q04DX003 (ip), vehicle: saline sonified): 113 % of control
- T/C (dose: 200.0 mg/kg/injection, schedule: Q04DX003 (ip), vehicle: saline sonified): 113 % of control
- T/C (dose: 400.0 mg/kg/injection, schedule: Q04DX003 (ip), vehicle: saline sonified): 113 % of control

SMILES: CCOC(=O)NC(=N/C(=C/c1cccc(C)n1)c1ccccc1)c1ccccc1
- T/C [3]: 93 % of control
- T/C (dose: 120.0 mg/kg/injection, schedule: Q01DX005 (ip), vehicle: Klucel (hydroxypropylcellulose) (HPC)): 91 % of control

SMILES: CC1=C(C)C(=O)O[C@@H]([C@](C)(O)[C@]2(O)CC[C@@]3(O)[C@@H]4C[C@H]5O[C@]56[C@@H](O)C=CC(=O)[C@]6(C)[C@H]4CC[C@]23C)C1
- T/C (dose: 1.0 mg/kg/injection, schedule: Q01DX005 (ip), vehicle: distilled water + Tween-80): 108 % of control
- T/C (dose: 2.0 mg/kg/injection, schedule: Q01DX005 (ip), vehicle: distilled water + Tween-80): 122 % of control
- T/C (dose: 4.0 mg/kg/injection, schedule: Q01DX005 (ip), vehicle: distilled water + Tween-80): 111 % of control and 113 % of control
- T/C (dose: 4.0 mg/kg/injection, schedule: Q01DX005 (ip), vehicle: saline): 122 % of control
- T/C (dose: 8.0 mg/kg/injection, schedule: Q01DX005 (ip), vehicle: distilled water + Tween-80): 108 % of control and 113 % of control
- T/C (dose: 16.0 mg/kg/injection, schedule: Q01DX005 (ip), vehicle: distilled water + Tween-80): 116 % of control
- T/C (dose: 16.0 mg/kg/injection, schedule: Q01DX005 (ip), vehicle: saline): 122 % of control
- T/C (dose: 16.0 mg/kg/injection, schedule: Q01DX009 (ip), vehicle: saline): 93 % of control
- T/C (dose: 32.0 mg/kg/injection, schedule: Q01DX009 (ip), vehicle: saline): 114 % of control

SMILES: S=c1cc(-c2ccccc2)ss1
- T/C (dose: 178.0 mg/kg/injection, schedule: Q04DX003 (ip), vehicle: saline with Tween-80): 102 % of control
- T/C (dose: 266.0 mg/kg/injection, schedule: Q04DX003 (ip), vehicle: saline with Tween-80): 102 % of control
- T/C [2]: 101 % of control
- T/C (dose: 600.0 mg/kg/injection, schedule: Q04DX003 (ip), vehicle: saline with Tween-80): 102 % of control

SMILES: Nc1nc(N)c(-c2ccc(Cl)c(Cl)c2)c(COc2cccc(CNC(=O)c3cccc(S(=O)(=O)F)c3)c2)n1
- T/C (dose: 100.0 mg/kg/injection, schedule: Q04DX003 (ip), vehicle: Klucel (hydroxypropylcellulose) (HPC)): 110 % of control
- T/C (dose: 400.0 mg/kg/injection, schedule: Q04DX003 (ip), vehicle: Klucel (hydroxypropylcellulose) (HPC)): 120 % of control

SMILES: CN1CCC(Br)(C(=O)c2ccccc2)CC1
- T/C (dose: 37.5 mg/kg/injection, schedule: Q01DX009 (ip), vehicle: saline with Tween-80): 100 % of control
- T/C (dose: 75.0 mg/kg/injection, schedule: Q01DX009 (ip), vehicle: saline with Tween-80): 100 % of control
- T/C (dose: 150.0 mg/kg/injection, schedule: Q01DX009 (ip), vehicle: saline with Tween-80): 104 % of control

SMILES: CNC(=O)CC(C(=O)O)N(C)C (configuration not stated)
- T/C (dose: 50.0 mg/kg/injection, schedule: Q01DX009 (ip), vehicle: water): 98 % of control
- T/C (dose: 100.0 mg/kg/injection, schedule: Q01DX009 (ip), vehicle: water): 106 % of control
- T/C (dose: 200.0 mg/kg/injection, schedule: Q01DX009 (ip), vehicle: water): 107 % of control

SMILES: CCC[CH2][Sn]([Cl])([CH2]CCC)[S]/C(C#N)=N/N=C/c1ccc(N(C)C)cc1
- T/C (dose: 15.0 mg/kg/injection, schedule: Q01DX005 (ip), vehicle: saline with Tween-80): 106 % of control
- T/C (dose: 60.0 mg/kg/injection, schedule: Q01DX005 (ip), vehicle: saline with Tween-80): 122 % of control

SMILES: NC(N)=O.NC(N)=O.NC(N)=O.NC(N)=O.NC(N)=O.NC(N)=O.[O-][Cl+3]([O-])([O-])O.[V]
- T/C (dose: 25.0 mg/kg/injection, schedule: Q04DX003 (ip), vehicle: saline with Tween-80): 94 % of control
- T/C (dose: 50.0 mg/kg/injection, schedule: Q04DX003 (ip), vehicle: saline with Tween-80): 97 % of control
- T/C [1]: 109 % of control

SMILES: c1ccc2c(-c3ccc(N4CCOCC4)cc3)c3ccc4ccccc4c3cc2c1
- T/C [4]: 91 % of control
- T/C [5]: 92 % of control
- T/C [6]: 99 % of control

SMILES: CCCC(NC(=O)OCc1ccccc1)C(=O)NCC(N)=O (configuration not stated) (Cbz-[ξNva]-Gly-NH2)
- T/C [4]: 103 % of control
- T/C [5]: 100 % of control
- T/C [6]: 100 % of control
